Columns and labels:
Type in all cases: in vivo
[1] = system: Avena fatua (AVEFA); assay: Test 1B glasshouse assay, post-emergence herbicidal activity against grassy weeds; conditions: 14 DAA
Outline: (§1)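 Percent phytotoxicity (0–100%, 1% steps) was scored visually 14 days after spraying, as the mean of duplicates. Plants grown 14 days under glasshouse control received the herbicide post-emergence, typically 60–120 g/ha with or without 50 g/ha cloquintocet-mexyl safener, in spray containing 0.5% v/v Adigor.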

[2] = system: Poa annua (POAAN); assay: as above; conditions: 14 DAA
Outline: as §1

[3] = system: Setaria viridis (SETVI); assay: as above; conditions: 14 DAA
Outline: as §1

[4] = system: Alopecurus myosuroides (ALOMY); assay: as above; conditions: 14 DAA
Outline: as §1

[5] = system: Lolium multiflorum (LOLMU); assay: as above; conditions: 14 DAA
Outline: as §1

[6] = system: Spring Wheat “Freya”; assay: Test 1B glasshouse assay, post-emergence herbicidal activity against cereal crops
[7] = system: Winter Wheat “Hereward”; assay: as above
Outline: (§2)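 Technical compound in IF50 with acetone, diluted into 0.5% v/v Adigor, sprayed post-emergence on 14-day glasshouse plants (22/16 °C, 16 h light, 65% humidity), typically at 60, 90 or 120 g/ha, with or without 50 g/ha cloquintocet-mexyl safener. Phytotoxicity scored visually 14 DAA (0–100%), mean of two replicates.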

[8] = system: Winter Barley “Suzuka”; assay: as above
Outline: as §2

[9] = system: Spring Barley “Harrington”; assay: as above
Outline: as §2

[10] = system: Avena fatua (AVEFA); assay: Test 1A glasshouse assay, pre-emergence herbicidal activity; conditions: 312 h, 250 g/ha, 13 days after application, read-out: Pre-emergence herbicidal activity (% phytotoxicity) AVEFA
Method: (§3) Seeds of a variety of test species were sown in standard soil in pots. After cultivation for one day (pre-emergence) or after 8 days cultivation (post-emergence) under controlled conditions in a glasshouse (at 24/16° C., day/night; 14 hours light; 65% humidity), the plants were sprayed with an aqueous spray solution derived from the formulation of the technical active ingredient in acetone/water (50:50) solution containing 0.5% Tween 20 (polyoxyethelyene sorbitan monolaurate, CAS RN 9005-64-5). The test plants were then grown under controlled conditions in a glasshouse (at 24/16° C., day/night; 14 hours light; 65% humidity) and watered twice daily. 13 days after application of the test herbicide, for pre- and post-emergence, the test was evaluated visually for percentage phytotoxicity to the plant (where 100%=total damage to plant; 0%=no damage to plant).
(§4) Test plants: Lolium perenne (LOLPE), Alopecurus myosuroides (ALOMY), Echinochloa crus-galli (ECHCG), and Avena fatua (AVEFA); these are all grassy monocotyledonous weeds.

[11] = system: Echinochloa crus-galli (ECHCG); assay: as above; conditions: 312 h, 250 g/ha, 13 days after application, read-out: Pre-emergence herbicidal activity (% phytotoxicity) ECHCG
Method: as §3, §4

[12] = system: Alopecurus myosuroides (ALOMY); assay: as above; conditions: 312 h, 250 g/ha, 13 days after application, read-out: Pre-emergence herbicidal activity (% phytotoxicity) ALOMY
Method: as §3, §4

[13] = system: Lolium perenne (LOLPE); assay: as above; conditions: 312 h, 250 g/ha, 13 days after application, read-out: Pre-emergence herbicidal activity (% phytotoxicity) LOLPE
Method: as §3, §4

[14] = system: Avena fatua (AVEFA); assay: Test 1A glasshouse assay, post-emergence herbicidal activity; conditions: Avena fatua, 312 h, application rate 250 g/ha, 13 days after application, visual (100%=total damage; 0%=no damage), read-out: Post-emergence Herbicidal Activity (% Phytotoxicity) AVEFA
Outline: (§5)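 Herbicidal effect is scored by eye as % phytotoxicity (0–100%) 13 days after treatment of 8-day-old glasshouse-grown plants. The spray solution contains the technical active ingredient in acetone/water with 0.5% Tween 20.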

[15] = system: Echinochloa crus-galli (ECHCG); assay: as above; conditions: Echinochloa crus-galli, 312 h, application rate 250 g/ha, 13 days after application, visual (100%=total damage; 0%=no damage), read-out: Post-emergence Herbicidal Activity (% Phytotoxicity) ECHCG
Outline: as §5

[16] = system: Alopecurus myosuroides (ALOMY); assay: as above; conditions: Alopecurus myosuroides, 312 h, application rate 250 g/ha, 13 days after application, visual (100%=total damage; 0%=no damage), read-out: Post-emergence Herbicidal Activity (% Phytotoxicity) ALOMY
Outline: as §5

[17] = system: Lolium perenne (LOLPE); assay: as above; conditions: Lolium perenne, 312 h, application rate 250 g/ha, 13 days after application, visual (100%=total damage; 0%=no damage), read-out: Post-emergence Herbicidal Activity (% Phytotoxicity) LOLPE
Outline: as §5

[18] = 30 g/ha herbicide, 50 g/ha cloquintocet-mexyl
[19] = 60 g/ha herbicide, 0 g/ha cloquintocet-mexyl
[20] = 60 g/ha herbicide, 50 g/ha cloquintocet-mexyl
[21] = herbicide 30 g/ha, cloquintocet-mexyl 50 g/ha
[22] = herbicide 60 g/ha, cloquintocet-mexyl 0 g/ha
[23] = herbicide 60 g/ha, cloquintocet-mexyl 50 g/ha

Cc1cc(C)c(C2C(=O)CC(CCNC(=O)c3cc(Cl)ccn3)C2=O)c(C)c1 (racemic) [Compound A23]
Post-emergence herbicidal activity, percentage phytotoxicity, AVEFA [1, 18]: 13% | Post-emergence herbicidal activity, percentage phytotoxicity, AVEFA [1, 19]: 80% | Post-emergence herbicidal activity, percentage phytotoxicity, AVEFA [1, 20]: 70% | Post-emergence herbicidal activity, percentage phytotoxicity, POAAN [2, 18]: 0% | Post-emergence herbicidal activity, percentage phytotoxicity, POAAN [2, 19]: 0% | Post-emergence herbicidal activity, percentage phytotoxicity, POAAN [2, 20]: 0% | Post-emergence herbicidal activity, percentage phytotoxicity, SETVI [3, 18]: 95% | Post-emergence herbicidal activity, percentage phytotoxicity, SETVI [3, 19]: 99% | Post-emergence herbicidal activity, percentage phytotoxicity, SETVI [3, 20]: 99% | Post-emergence herbicidal activity, percentage phytotoxicity, ALOMY [4, 18]: 28% | Post-emergence herbicidal activity, percentage phytotoxicity, ALOMY [4, 19]: 75% | Post-emergence herbicidal activity, percentage phytotoxicity, ALOMY [4, 20]: 78% | Post-emergence herbicidal activity, percentage phytotoxicity, LOLMU [5, 18]: 48% | Post-emergence herbicidal activity, percentage phytotoxicity, LOLMU [5, 19]: 90% | Post-emergence herbicidal activity, percentage phytotoxicity, LOLMU [5, 20]: 83% | Percentage Phytotoxicity Spring Wheat “Freya” [6, 21]: 5% | Percentage Phytotoxicity Spring Wheat “Freya” [6, 22]: 63% | Percentage Phytotoxicity Spring Wheat “Freya” [6, 23]: 7% | Percentage Phytotoxicity Winter Wheat “Hereward” [7, 21]: 0% | Percentage Phytotoxicity Winter Wheat “Hereward” [7, 22]: 68% | Percentage Phytotoxicity Winter Wheat “Hereward” [7, 23]: 0% | Percentage Phytotoxicity Winter Barley “Suzuka” [8, 21]: 0% | Percentage Phytotoxicity Winter Barley “Suzuka” [8, 22]: 70% | Percentage Phytotoxicity Winter Barley “Suzuka” [8, 23]: 15% | Percentage Phytotoxicity Spring Barley “Harrington” [9, 21]: 1% | Percentage Phytotoxicity Spring Barley “Harrington” [9, 22]: 75% | Percentage Phytotoxicity Spring Barley “Harrington” [9, 23]: 5% | inhibition at 250 g/ha [10]: 80% | inhibition at 250 g/ha [11]: 100% | inhibition at 250 g/ha [12]: 90% | inhibition at 250 g/ha [13]: 100% | pest or weed control at 250 g/ha [14]: 90% | pest or weed control at 250 g/ha [15]: 100% | pest or weed control at 250 g/ha [16]: 90% | pest or weed control at 250 g/ha [17]: 90%
